Reference: ChEMBL document CHEMBL1641549, “Inhibitory effects of hybrid liposomes on the growth of synoviocyte causing rheumatoid arthritis” (2011)
Active and inactive are the calls of the source. The calls are words filed in the database; no cut-off is given here.

Assays:
[1] = organism: Homo sapiens; test: Growth inhibition of HFLS isolated from rheumatoid arthritis patients after 48 hrs by WST-1 assay; type: functional
[2] = organism: Homo sapiens; test: Induction of apoptosis in HFLS isolated from rheumatoid arthritis patients by TUNEL assay; type: functional
[3] = Induction of apoptosis in HFLS isolated from rheumatoid arthritis patients after 24 hrs using propidium iodide staining by flow cytometry relative to DNA content; type: functional, Homo sapiens
[4] = tested on: Mus musculus; test: Antiarthritic activity in SKG mouse expressing human rheumatoid arthritis invasion of inflammatory cells assessed as reduction of laminarin-induced joint swelling at 135 mg/kg, iv administered 14 days after laminarin challenge every 2 days for 36 weeks; type: functional, organism-based; parameters: dose 135 mg/kg

| Structure (SMILES) | growth inhibition (GI) [1] | Activity [2] | Activity [3] [%] | Activity [4] |
| --- | --- | --- | --- | --- |
| CCCCCCCCCCCCOCCOCCOCCOCCOCCOCCOCCOCCOCCOCCOCCOCCOCCOCCOCCOCCOCCOCCOCCOCCOCCOCCOCCOCCOCCO | Active | Active | 21.2 | – |
| CCCCCCCCCCCCOCCOCCOCCOCCOCCOCCOCCOCCOCCOCCOCCOCCOCCOCCOCCOCCOCCOCCOCCOCCOCCOCCOCCO | Active | Active | 24.8 | Active |
| CCCCCCCCCCCCOCCOCCOCCOCCOCCOCCOCCOCCOCCOCCOCCOCCOCCOCCOCCOCCOCCOCCOCCOCCOCCO | Active | Active | 20.9 | – |
